Structures can show the parent of a compound that is named as a salt.
Experiments:
Format in all cases: in vivo
mice [1] = test: Chimney test (mice fail to back up and out of a vertical glass cylinder within 30 seconds); conditions: Mus musculus, ip; intraperitoneal injection in mice; 50% of the mice failed to back out within 30 seconds; read-out: ED50 Ch (chimney test)
From the text: (§1) Tranquilizing effects of the compounds of this invention are shown by the following tests in mice:
Chimney test: [Med. Exp. 4, 145 (1961)]: The test determines the ability of mice to back up and out of a vertical glass cylinder within 30 seconds. At the effective dosage, 50% of the mice failed doing it.

mice [2] = test: Dish test (mice remaining in the dish for more than 3 minutes); conditions: Mus musculus, ip, 0.05 h; intraperitoneal injection in mice; 50% of the mice remain in the dish for more than 3 minutes; read-out: ED50 D (dish test)
Procedure: as §1
Dish test: Mice in Petri dishes (10 cm. diameter, 5 cm. high, partially embedded in wood shavings), climb out in a very short time, when not treated. Mice remaining in the dish for more than 3 minutes indicates tranquilization. ED50 equals the dose of test compound at which 50% of the mice remain in the dish.

mice [3] = test: Pedestal test (mice stay on the pedestal for more than 1 minute); conditions: Mus musculus, ip, 1 min, intraperitoneal injection in mice, read-out: ED50 P (pedestal test)
Procedure: as §1
Pedestal test: The untreated mouse leaves a standard pedestal in less than a minute to climb back to the floor of the standard mouse box. Tranquilized mice will stay on the pedestal for more than 1 minute.

mice [4] = test: Nicotine antagonism test (nicotine salicylate 2 mg./kg.); conditions: Mus musculus, ip, intraperitoneal injection in mice, nicotine salicylate 2 mg./kg. thirty minutes later
Procedure: as §1
Nicotine antagonism test: Mice in a group of 6 are injected with the test compound. Thirty minutes later the mice including control (untreated) mice are injected with nicotine salicylate (2 mg./kg.). The control mice show overstimulation, i.e., (1) running convulsions followed by (2) tonic extensor fits; followed by (3) death.
Ni = nicotine antagonism (2) and (3) tests.

[5] = (2) tonic extensor fits, read-out: ED50 Ni(2) (nicotine antagonism (2) test)
[6] = (3) death, read-out: ED50 Ni(3) (nicotine antagonism (3) test)

Structure (SMILES)	ED50 (mice [1])	ED50 (mice [2])	ED50 (mice [3])	ED50 (mice [4]; [5])	ED50 (mice [4]; [6])
Cc1n[n+](C)c2n1-c1ccc(Cl)cc1C(c1ccccc1)=NC2 [8-Chloro-1,3-dimethyl-6-phenyl-4H-s-triazolo[4,3-a][1,4]benzodiazepinium chloride sesquihydrate]	36 mg/kg	79 mg/kg	79 mg/kg	22 mg/kg	22 mg/kg
C[n+]1nc([O-])n2c1CN=C(c1ccccc1Cl)c1cc(Cl)ccc1-2 [8-Chloro-6-(o-chlorophenyl)-1-hydroxy-3-methyl-4H-s-triazolo[4,3-a][1,4]benzodiazepinium hydroxide inner salt]	1.6 mg/kg	1.2 mg/kg	3.2 mg/kg	0.3 mg/kg	0.44 mg/kg

Source: US4082761A, “Triazolo[4,3-a][1,4]benzodiazepinium quaternary salts” (The Upjohn Company, priority 1973, dated 1978)
